# According to US20050220865A1, “Compressed composition comprising magnesium salt” (priority 2004, published 2005):
# Columns and labels:
# [1] = cited from earlier work; for USP 27/NF22 Solubility: USP 27/NF22 solubility term
# [2] = Storage stability of USP <711> dissolution profile at 40° C. and 75% relative humidity; assay type: physicochemical; conditions: FIG. 4; stored at 40° C. and 75% relative humidity up to 2 months; protected from moisture
# Protocol: By “pharmaceutically acceptable storage conditions” is meant storage at 25° C. and 60% relative humidity (RH) in a tight, sealed container-enclosure system. The storage conditions employed herein (40° C. and 75% RH) in evaluating formulations are used in the pharmaceutical industry to conduct accelerated stability testing of formulations such that a period of 2 months under these conditions is generally accepted to equal a period of 1 year under pharmaceutically acceptable storage conditions (25° C. and 60% relative humidity).
# (§1) USP 27/NF22 specification for magnesium oxide tablets is not less than 75% (O) of the labeled amount of MgO is dissolved in 45 minutes. Dissolution testing is performed using apparatus II with 900 mL of 0.1 N hydrochloric acid maintained at 37° C. and agitated at 75 rpm. Samples are withdrawn at after 45 minutes of testing. The amount of MgO dissolved is then determined using atomic absorption (AA) spectrophotometry at a wavelength of 285.2 nm using filtered portions of the solution under test, diluted with Dissolution Medium. A standard curve is generated using a magnesium standard solution of known concentration in the same medium.
# The initial dissolution profile for each of the prior art and present formulations is determined as described herein. […] At monthly intervals, the dissolution profile of the formulations is determined again. […]
# [3] = Magnesium oxide tablet monograph USP <711> dissolution; assay type: physicochemical; conditions: FIG. 5; binary mixture of heavy grade magnesium oxide, USP with excipient
# Protocol: The following drawings are given by way of illustration only, and thus are not intended to limit the scope of the present invention. The USP27/NF22 monograph for magnesium oxide tablets specifies that the dissolution method is to be executed using the general conditions of chapter <711> with 900 mL of 0.1 N hydrochloric acid, a paddle rotation speed of 75 RPM, and a sampling timepoint of 45 minutes.
# as §1
Molecule,USP 27/NF22 Solubility [1],Solubility in Neutral Water [1] [g/100 mL],dissolution of magnesium from pure magnesium oxide [2],influence of excipient on dissolution of magnesium [3]
[F-].[F-].[Mg+2] [MgF2],Practically Insoluble,0.0002,–,–
"[O]=[Mg] [MgO, magnesium oxide, reference compound]",Practically Insoluble,0.00062,suitable dissolution,–
O=C([O-])CC(O)(CC(=O)[O-])C(=O)[O-].[Na+].[Na+].[Na+] [sodium citrate],–,–,–,decrease dissolution
potassium phosphate,–,–,–,decrease dissolution
